Assay results as given in patent publication US20250152584A1, “NLRP3 INFLAMMASOME INHIBITOR AND USES THEREOF” (TransThera Sciences (Nanjing), Inc., priority 2022, published 2025).

How the values were obtained:
[1] = Pharmacokinetic study in beagles; format: in vivo; conditions: beagle, dog, plasma, male beagles; for Cmax: read-out: Cmax po (peak concentration); for Tmax: read-out: Tmax po (peak time of plasma concentration); for clearance: read-out: Cl—obs iv (clearance rate) (converted); for Vd: read-out: Vss iv (volume of distribution); for bioavailability: iv 1.0 mg/kg / po 1.0 mg/kg, read-out: F % (absolute bioavailability)
Description: Experimental Example 4: Pharmacokinetic Study of Compounds in Beagles
Compound 174 was prepared into a solution with a mixed solvent formulated from 5% dimethyl sulfoxide, 20% (30% solutol) and 75% normal saline; the solution of this compound was administered to male beagles by gavage at a dose of 1.0 mg/kg; and the time points for blood collection were: 15 min, 30 min, 1 b, 2 h, 4 h, 6 b, 8 h, 10 h and 24 h. The solution of the compound was administered to male beagles by intravenous bolus at a dose of 1.0 mg/kg, and the time points for blood collection were as follows: 5 min, 15 min, 30 min, 1 h, 2 h, 4 h, 6 h, 8 h, 10 h, and 24 h.
Compound 177 and Compound 195 were prepared into solutions with a mixed solvent formulated from 5% dimethyl sulfoxide, 20% (30% solutol) and 75% normal saline, respectively; the solutions of these compounds were administered to male beagles by gavage at a dose of 1.0 mg/kg; and the time points for blood collection were: 15 min, 30 min, 1 h, 2 h, 4 h, 6 h, 8 h, 10 h and 24 h. The solution of the compound was administered to male beagles by intravenous bolus at a dose of 1.0 mg/kg, and the time points for blood collection were as follows: 5 min, 15 min, 30 min, 1 h, 2 h, 4 h, 6 h, 8 h, 10 h, and 24 h.
Approximately 400 μL of blood was collected through the medial cephalic vein of the forelimb and placed in an anticoagulant tube containing EDTA-K2. Blood samples were centrifuged at 12,000 rpm for 10 min at 4° C. to obtain plasma samples, and plasma was prepared within 30 min after blood collection. The plasma was stored in a −80° C. freezer before testing.

[2] = Pharmacokinetic study in C57BL/6J mice; format: in vivo; conditions: mouse, plasma, C57BL/6J female mice
Description: Experimental Example 2: Pharmacokinetic Study of Compounds in C57BL/6J Mice
Compound 100, Compound 54, Compound 174, Compound 179, and Compound 253 were prepared into solutions with a mixed solvent formulated from 5% dimethyl sulfoxide, 20% (30% solutol) and 75% normal saline, respectively; the solution of each compound was administered to C57BL/6J female mice by gavage at a dose of 10 mg/kg; and the time points for blood collection were: 15 min, 30 min, 1 h, 2 h, 4 h, 6 h, 8 h and 24 h. The solution of the compound was administered to C57BL/6J female mice by intravenous bolus at a dose of 5 mg/kg, and the time points for blood collection were as follows: 5 min, 15 min, 30 min, 1 h, 2 h, 4 h, 6 h, 8 h, and 24 h.
Compound 1 was prepared into a solution with a mixed solvent formulated from 5% DME, 20% (30% solutol) and 75% normal saline; the solution of this compound was administered to C57BL/6J female mice by gavage at a dose of 10 mg/kg, and the time points for blood collection were: 15 min, 30 min, 1 h, 2 h, 4 h, 6 h, 8 h, and 24 h. The solution of the compound was administered to C57BL/6J female mice by intravenous bolus at a dose of 5 mg/kg, and the time points for blood collection were as follows: 5 min, 15 min, 30 min, 1 h, 2 h, 4 h, 6 h, 8 h, and 24 h.
Compound 195 was prepared into a solution with a mixed solvent formulated from 5% dimethyl sulfoxide, 20% PEG400 and 75% normal saline; the solution of this compound was administered to C57BL/6J female mice by gavage at a dose of 10 mg/kg; and the time points for blood collection were 15 min, 30 min, 1 h, 2 h, 4 h, 6 h, 8 h, and 24 b. The solution of the compound was administered to C57BL/6J female mice by intravenous bolus at a dose of 5 mg/kg, and the time points for blood collection were as follows: 5 min, 15 min, 30 min, 1 h, 2 b, 4 h, 6 h, 8 h, and 24 h.
Approximately 100 μL of blood was collected through the retroorbital venous plexus, and was then placed in an anticoagulant tube containing EDTA-K2. Blood samples were centrifuged at 12,000 rpm for 10 min at 4° C. to obtain plasma samples, and plasma was prepared within 30 min after blood collection. The plasma was stored in a −80° C. freezer before testing.
• 1. The samples were taken from the −80° C. freezer, thawed naturally at room temperature, and then vortexed for 5 min • 2. 10 μL of a plasma sample was precisely pipetted from different individuals into a 1.5 mL centrifuge tube. • 3. 300 μL of an internal standard working solution (the acetonitrile solution of tolbutamide) at a concentration of […] was added and mixed well. • 4. After vortexing for 5 min, the mixture was centrifuged at 12,000 rpm for 5 min. • 5. 50 μL of the supernatant was accurately pipetted into a 96-well plate preloaded with water at 150 μL/well. • 6. Vortexing was performed for 5 min for sufficient mixing, and LC-MS/MS analysis was then conducted.
The results of the concentrations of the compounds under test were output using Analyst 1.6.3 of AB. Parameters such as mean, standard deviation, coefficient of variation was calculated by Microsoft Excel (parameters directly output by Analyst 1.6.3 needed no calculation), and PK parameters were calculated by WinNonlin Phenoix 8.2 software NCA (Tmax as the median).

[3] = po, gavage 1.0 mg/kg, read-out: AUClast po (area under the drug-time curve for 0-24 h)
[4] = po, gavage 1.0 mg/kg, read-out: tz1/2 po (terminal elimination half-life) (converted)
[5] = intravenous bolus 1.0 mg/kg, read-out: AUClast iv (area under the drug-time curve for 0-24 h)
[6] = intravenous bolus 1.0 mg/kg, read-out: tz1/2 iv (terminal elimination half-life) (converted)

| AUC(0-t) [1, 3] [ng·h/mL] | Cmax ([1]; po, gavage 1.0 mg/kg) [ng/mL] | Tmax ([1]; po, gavage 1.0 mg/kg) [h] | half-life [1, 4] [h] | AUC(0-t) [1, 5] [ng·h/mL] | clearance ([1]; intravenous bolus 1.0 mg/kg) [mL/min/kg] | Vd ([1]; intravenous bolus 1.0 mg/kg) [L/kg] | half-life [1, 6] [h] | bioavailability [1] [%] | Tmax ([2]; po, gavage 10 mg/kg, median, read-out: Tmax po (peak time of plasma concentration)) [h] | AUC(0-t) ([2]; po, gavage 10 mg/kg, read-out: AUClast po (area under the drug-time curve for 0-24 h)) [ng·h/mL] | Cmax ([2]; po, gavage 10 mg/kg, read-out: Cmax po (peak concentration)) [ng/mL] | half-life ([2]; po, gavage 10 mg/kg, read-out: tz1/2 po (terminal elimination half-life) (converted)) [h] | AUC(0-t) ([2]; intravenous bolus 5 mg/kg, read-out: AUClast iv (area under the drug-time curve for 0-24 h)) [ng·h/mL] | clearance ([2]; intravenous bolus 5 mg/kg, read-out: Cl—obs iv (clearance rate) (converted)) [mL/min/kg] | Vd ([2]; intravenous bolus 5 mg/kg, read-out: Vss iv (volume of distribution)) [L/kg] | half-life ([2]; intravenous bolus 5 mg/kg, read-out: tz1/2 iv (terminal elimination half-life) (converted)) [h] | bioavailability ([2]; iv 5 mg/kg / po 10 mg/kg, read-out: F % (absolute bioavailability)) [%] | Compound |
| --- | --- | --- | --- | --- | --- | --- | --- | --- | --- | --- | --- | --- | --- | --- | --- | --- | --- | --- |
| 1920 | 293 | 1 | 5.9 | 1240 | 13 | 5.53 | 5.58 | 154 | – | – | – | – | – | – | – | – | – | C#Cc1ccc(-c2nnc(N[C@@H]3CCCN(C)C3)nc2C)c(O)c1 [Compound 177] |
| 1900 | 206 | 4 | 11 | 2320 | 6.58 | 3.74 | 8.16 | 90.7 | 1 | 7860 | 1230 | 3.12 | 3580 | 23.2 | 5.14 | 3.89 | 110 | CC#Cc1ccc(-c2nnc(N[C@@H]3CCCN(C)C3)nc2C)c(O)c1 [Compound 195] |
